The assay deals with cotton shoot initiation (cultivar Deltapine 50 hypocotyl explants). Nature of the assay: Dose response study: effect of aminoglycosides on cotton shoot initiation from hypocotyl explants on medium GA. The format is in vivo. Conditions: incorporated in medium GA, results after 1 month, kanamycin tested at 0-200 mg/l, geneticin at 0-20 mg/l. The text has this: Hypocotyl sections were placed horizontally on shoot initiation medium (GA). Explants were maintained for 6 weeks on this medium. Shoot primordia were visible on the acropetal ends of hypocotyl sections after 2 weeks. After 6 weeks, leaves were clearly visible. Shoot initiation has been observed in 7 commercial cultivars (Deltapine 50, Stoneville 474, Deltapine 5111, Tx 121, Suregrow 125, Fibermax 819, and Paymaster 1215) and 3 breeding lines, and the response ranged from 20-73% (percentage explants capable of initiating shoots per cultivar).
GA: semi-solid GMS plus an auxin like NAA (0.1-3.0 mg/l), a cytokinin like TDZ, or BA plus kinetin (0.1-2.5 mg/l) and 1-50 mg/l silver nitrate
The effect of the aminoglycosides kanamycin and geneticin on cotton shoot initiation were investigated. Kanamycin, at concentrations of 0.0, 50, 100, 150 and 200 mg/I, and geneticin at 0.0, 5.0, 10, 15 and 20 mg/l, were incorporated in medium GA. The experiment consisted of 3 replicate plates/treatment and 4 explants/replicate plates using the cultivar Deltapine 50. […] A geneticin concentration up to 20 mg/l was not inhibitory to shoot initiation.

A value given as a limit tells only on which side of the number the result lay.

Regarding `CN[C@@H]1[C@@H](O)[C@@H](O[C@@H]2[C@@H](O)[C@H](O[C@H]3O[C@H]([C@@H](C)O)[C@@H](O)[C@H](O)[C@H]3N)[C@@H](N)C[C@H]2N)OC[C@]1(C)O` [geneticin], the “concentration inhibitory to shoot initiation” value was over 20 mg/L.

Regarding `NC[C@H]1O[C@H](O[C@H]2[C@H](O)[C@@H](O[C@H]3O[C@H](CO)[C@@H](O)[C@H](N)[C@H]3O)[C@H](N)C[C@@H]2N)[C@H](O)[C@@H](O)[C@@H]1O` [kanamycin], the “concentration inhibitory to shoot initiation” value is 50 mg/L.

These data come from patent US6479287B1, “Method for transformation of cotton and organogenic regeneration” (Mississippi State University, priority 2000, dated 2002).
